Test results from patent US5312815A, “Fungicidal (+)-2-(2,4-difluorophenyl)-3-methyl-1-(1H-1,2,4-triazol-1-yl)3-(6-(1H-1, 2,4-triazol-1-yl)pyridazin-3-ylthio) butan-2-ol” (Roussel Morishita Co., Ltd., priority 1992, dated 1994).

Experiments:
[1] = tested on: Aspergillus fumigatus Kawasaki strain; assay: In vivo antifungal activity, Aspergillus fumigatus infected mice, i.v.; set-up: species or system mouse; conditions: 12.5 mg/kg i.v. twice a day, 4 days, Example 1 as G2-β-CyD complex, FCZ in saline
Procedure: Aspergillus fumigatus Kawasaki strain having been cultured at 27° C. for 1 week was suspended in physiological saline, and the cell suspension (3×10^6 cells) was injected into the tail vein of a 4-week-old day male mouse (9 mice per group). Two days before the infection and on the day of the infection, 100 mg/kg of cyclophosphamide was intraperitoneally administered to each animal.
(§1) For comparison, fluconazole was used as a comparative substance.

[2] = Toxicity in maintained administration in rats; assay type: in vivo, Crj:CD male rat; conditions: 100 or 300 mg/kg once a day, 2 weeks, in 0.5% MC
Procedure: A 6-week-old Crj:CD male rat (6 rats per group) was maintained on the compound of Example 1 or fluconazole suspended in 0.5% MC at a dose of 100 mg/kg or 300 mg/kg once a day for 2 consecutive weeks. Manifestations of toxicity were observed through observation of general signs, body weight measurement, biochemical examination of blood, organ weight measurements, and postmortem examinations.

[3] = tested on: Candida albicans CAA-14 strain; assay: In vivo antifungal activity, Candida albicans infected mice, i.v.; set-up: species or system ICR male mouse; conditions: 5 mg/kg i.v. twice a day, 2 days, Example 1 as G2-β-CyD complex, FCZ in saline
Procedure: Candida albicans CAA-14 strain having been cultured at 30° C. for 24 hours was suspended in physiological saline, and the cell suspension (5×10^6 cells) was injected into the tail vein of a 5-week-old ICR male mouse (9 mice per group). Two days before the infection and on the day of the infection, 100 mg/kg of cyclophosphamide was intraperitoneally administered to each animal.
as §1

[4] = tested on: Aspergillus fumigatus Kawasaki strain; assay: In vivo antifungal activity, Aspergillus fumigatus infected mice, oral; set-up: species or system mouse; conditions: 25 mg/kg p.o. twice a day, 4 days, in 0.5% MC (ITZ: in PEG 400)
Procedure: Asperoillus fumigatus Kawasaki strain having been cultured at 27° C. for 1 week was suspended in physiological saline, and the suspension (3×10^6 cells) was injected into the tail vein of a 4-week-old day male mouse (9 mice per group). Two days before the infection and on the day of the infection, 100 mg/kg of cyclophosphamide was intraperitoneally administered to each animal.
For comparison, compound (A) shown below which is described in EP 0421210A2, fluconazole (FCZ) and itraconazole (ITZ), were used as a comparative substance. Itraconazole was administered in a polyethylene glycol (400) solution. [drawing 4]

In the case of `OC(Cn1cncn1)(Cn1cncn1)c1ccc(F)cc1F` [FCZ, fluconazole, reference compound], the “Mean Survival Days” value ([1]; 10 days observation) is reported as 2.0 days, the “Survival Number on Day 1” value ([1]; of 9 mice) is reported as 9 and the “Survival Number on Day 2” value ([1]; of 9 mice) is reported as 9. The “Survival Number on Day 3” value ([1]; of 9 mice) was 0, the manifestations of toxicity [2] was “production of hepatomegaly and enlargement of the suprarenalcapsules, with the degree thereof depending on dosage” and the “Mean Survival Days” value ([3]; 10 days observation) was 6.3 days. For the same compound, the “Survival Number on Day 1” value ([3]; of 9 mice) was 9, the “Survival Number on Day 2” value ([3]; of 9 mice) was 9 and the “Survival Number on Day 3” value ([3]; of 9 mice) was 8. The “Survival Number on Day 4” value ([3]; of 9 mice) was 8, the “Survival Number on Day 5” value ([3]; of 9 mice) was 8 and the “Survival Number on Day 6” value ([3]; of 9 mice) was 6. The “Survival Number on Day 7” value ([3]; of 9 mice) was 3, the “Survival Number on Day 8” value ([3]; of 9 mice) was 2 and the “Survival Number on Day 9” value ([3]; of 9 mice) was 2. The “Survival Number on Day 10” value ([3]; of 9 mice) was 1, the “Mean Survival Days” value ([4]; 10 days observation) was 2.0 days and the “Survival Number on Day 1” value ([4]; of 9 mice) was 9. The “Survival Number on Day 2” value ([4]; of 9 mice) was 9 and the “Survival Number on Day 3” value ([4]; of 9 mice) was 0.
